# Source: patent publication US4068070A, “α-Cyanoamine compounds and a process for producing the same” (Fuji Chemical Industry Co., Ltd., priority 1974, dated 1978)
# What was measured:
# Assay type in all cases: in vivo, mongrel adult dogs
# [1] = system: arterial mean blood pressure; assay: Effects on arterial mean blood pressure
# Procedure: (§1) All experiments were made on male and female thoractomized mongrel adult dogs weighing about 10 kg. under anesthesia with pentobarbital sodium. Compounds A, D, E and F were suspended in 0.2% CMC solution, Compound B dissolved in hydrochloric acid solution (pH 6), and Compound C and active placebo being dissolved in physiological saline solution. Animals were administered the drug intravenously on brachiuma with either test compound or active placebo.
# (§2) Arterial blood pressure was measured by pressure transducer (Nippon Koden MPU-0.5) connected with the cannula inserted from exposed carotid artery into aorta. Aortic blood flow was determined by means of electromagnetic flow meter (Nippon Koden MF-5) mounted at the origin of the aorta. Coronary sinus out flow and coronary sinus oxygen tension were assessed by means of electromagnetic flow meter (Nippon Koden MF-5) and P02 macro electrode (Beokmann Moder 160-C), respectively using Morawitz cannulization technique. Heart rate was measured by cardiotachometer (Nippon Koden RT-2) synchronized with systolic blood pressure of aorta.
# aortic blood flow = assay: Effects on aortic blood flow
# Procedure: as §1, §2
# coronary sinus out flow = assay: Effects on coronary sinus out flow
# Procedure: as §1, §2
smiles,measurement,setting,value
CCOC(=O)CN1CCN(C(C#N)c2ccc(OC)c(OC)c2)CC1 (stereo not shown) [Compound B],"Changes (%) of basal values, arterial mean blood pressure","[1]; 0.2 mg/kg i.v., 1 min",+4.8%
same,"Changes (%) of basal values, arterial mean blood pressure","[1]; 0.2 mg/kg i.v., 5 min",+0.4%
same,"Changes (%) of basal values, arterial mean blood pressure","[1]; 0.2 mg/kg i.v., 10 min",+0.1%
same,"Changes (%) of basal values, arterial mean blood pressure","[1]; 0.2 mg/kg i.v., 20 min",-0.1%
same,"Changes (%) of basal values, arterial mean blood pressure","[1]; 0.2 mg/kg i.v., 30 min",0%
same,"Changes (%) of basal values, arterial mean blood pressure","[1]; 0.2 mg/kg i.v., 40 min",0%
same,"Changes (%) of basal values, arterial mean blood pressure","[1]; 0.2 mg/kg i.v., imm.",-5.0%
same,"Changes (%) of basal values, arterial mean blood pressure","[1]; 0.6 mg/kg i.v., 1 min",+6.2%
same,"Changes (%) of basal values, arterial mean blood pressure","[1]; 0.6 mg/kg i.v., 5 min",+0.1%
same,"Changes (%) of basal values, arterial mean blood pressure","[1]; 0.6 mg/kg i.v., 10 min",-0.3%
same,"Changes (%) of basal values, arterial mean blood pressure","[1]; 0.6 mg/kg i.v., 20 min",0%
same,"Changes (%) of basal values, arterial mean blood pressure","[1]; 0.6 mg/kg i.v., 30 min",0%
same,"Changes (%) of basal values, arterial mean blood pressure","[1]; 0.6 mg/kg i.v., 40 min",0%
same,"Changes (%) of basal values, arterial mean blood pressure","[1]; 0.6 mg/kg i.v., imm.",-14.4%
same,"Changes (%) of basal values, arterial mean blood pressure","[1]; 3.0 mg/kg i.v., 1 min",+7.0%
same,"Changes (%) of basal values, arterial mean blood pressure","[1]; 3.0 mg/kg i.v., 5 min",+2.5%
same,"Changes (%) of basal values, arterial mean blood pressure","[1]; 3.0 mg/kg i.v., 10 min",+0.4%
same,"Changes (%) of basal values, arterial mean blood pressure","[1]; 3.0 mg/kg i.v., 20 min",-1.0%
same,"Changes (%) of basal values, arterial mean blood pressure","[1]; 3.0 mg/kg i.v., 30 min",-0.5%
same,"Changes (%) of basal values, arterial mean blood pressure","[1]; 3.0 mg/kg i.v., 40 min",0%
same,"Changes (%) of basal values, arterial mean blood pressure","[1]; 3.0 mg/kg i.v., imm.",-16.2%
same,Effects on arterial mean blood pressure (in words),"[1]; i.v., anesthetized dogs","transitory hypotensive effect immediately after administration, and thereafter increased blood pressure which was then, from 10 minutes after medication, returned to the level before treatment"
same,"Changes (%) of basal values, aortic blood flow","aortic blood flow; 0.2 mg/kg i.v., 1 min",+1.2%
same,"Changes (%) of basal values, aortic blood flow","aortic blood flow; 0.2 mg/kg i.v., 5 min",+0.3%
same,"Changes (%) of basal values, aortic blood flow","aortic blood flow; 0.2 mg/kg i.v., 10 min",-0.1%
same,"Changes (%) of basal values, aortic blood flow","aortic blood flow; 0.2 mg/kg i.v., 20 min",0%
same,"Changes (%) of basal values, aortic blood flow","aortic blood flow; 0.2 mg/kg i.v., 30 min",0%
same,"Changes (%) of basal values, aortic blood flow","aortic blood flow; 0.2 mg/kg i.v., 40 min",0%
same,"Changes (%) of basal values, aortic blood flow","aortic blood flow; 0.2 mg/kg i.v., imm.",+2.5%
same,"Changes (%) of basal values, aortic blood flow","aortic blood flow; 0.6 mg/kg i.v., 1 min",+1.6%
same,"Changes (%) of basal values, aortic blood flow","aortic blood flow; 0.6 mg/kg i.v., 5 min",+2.3%
same,"Changes (%) of basal values, aortic blood flow","aortic blood flow; 0.6 mg/kg i.v., 10 min",0%
same,"Changes (%) of basal values, aortic blood flow","aortic blood flow; 0.6 mg/kg i.v., 20 min",-1.1%
same,"Changes (%) of basal values, aortic blood flow","aortic blood flow; 0.6 mg/kg i.v., 30 min",-0.7%
same,"Changes (%) of basal values, aortic blood flow","aortic blood flow; 0.6 mg/kg i.v., 40 min",0%
same,"Changes (%) of basal values, aortic blood flow","aortic blood flow; 0.6 mg/kg i.v., imm.",+4.8%
same,"Changes (%) of basal values, aortic blood flow","aortic blood flow; 2.0 mg/kg i.v., 1 min",+4.3%
same,"Changes (%) of basal values, aortic blood flow","aortic blood flow; 2.0 mg/kg i.v., 5 min",-1.2%
same,"Changes (%) of basal values, aortic blood flow","aortic blood flow; 2.0 mg/kg i.v., 10 min",-2.1%
same,"Changes (%) of basal values, aortic blood flow","aortic blood flow; 2.0 mg/kg i.v., 20 min",-1.8%
same,"Changes (%) of basal values, aortic blood flow","aortic blood flow; 2.0 mg/kg i.v., 30 min",0%
same,"Changes (%) of basal values, aortic blood flow","aortic blood flow; 2.0 mg/kg i.v., 40 min",0%
same,"Changes (%) of basal values, aortic blood flow","aortic blood flow; 2.0 mg/kg i.v., imm.",+6.2%
same,Effects on aortic blood flow (in words),"aortic blood flow; i.v., anesthetized dogs","an increase in blood flow immediately after administration, followed by a decrease in blood flow"
same,"Changes(%) of basal values, coronary sinus out flow","coronary sinus out flow; 0.2 mg/kg i.v., 1 min",+4.9%
same,"Changes(%) of basal values, coronary sinus out flow","coronary sinus out flow; 0.2 mg/kg i.v., 5 min",+0.7%
same,"Changes(%) of basal values, coronary sinus out flow","coronary sinus out flow; 0.2 mg/kg i.v., 10 min",0%
same,"Changes(%) of basal values, coronary sinus out flow","coronary sinus out flow; 0.2 mg/kg i.v., 20 min",-0.3%
same,"Changes(%) of basal values, coronary sinus out flow","coronary sinus out flow; 0.2 mg/kg i.v., 30 min",0%
same,"Changes(%) of basal values, coronary sinus out flow","coronary sinus out flow; 0.2 mg/kg i.v., 40 min",0%
same,"Changes(%) of basal values, coronary sinus out flow","coronary sinus out flow; 0.2 mg/kg i.v., imm.",+18.0%
same,"Changes(%) of basal values, coronary sinus out flow","coronary sinus out flow; 0.6 mg/kg i.v., 1 min",+30.7%
same,"Changes(%) of basal values, coronary sinus out flow","coronary sinus out flow; 0.6 mg/kg i.v., 5 min",+0.9%
same,"Changes(%) of basal values, coronary sinus out flow","coronary sinus out flow; 0.6 mg/kg i.v., 10 min",-0.7%
same,"Changes(%) of basal values, coronary sinus out flow","coronary sinus out flow; 0.6 mg/kg i.v., 20 min",-0.2%
